Results reported in patent US20200071316A1, “ACTIVATORS OF THE RETINOIC ACID INDUCIBLE GENE "RIG-I" PATHWAY AND METHODS OF USE THEREOF” (Kineta Immuno-Oncology LLC, priority 2018, published 2020).
Marks after values point to notes of the source that are not given here.

What was measured:
[1] = test system: IRF3 signaling pathway (IRF-inducible ISG54 promotor) in THP1-Lucia ISG cells; assay: THP1-Lucia ISG reporter assay: induction of IRF3-dependent luciferase activity; assay type: cell-based; conditions: Homo sapiens, PMA-differentiated cells, 18 h after stimulation, read-out: THP1 ISG: fold increase of IRF3-dependent luciferase activity over background; for fold induction at 10 µM: 10 μM compound; for fold induction at 5 µM: 5 μM compound (**)
Experimental: The compounds were evaluated in the THP1-Lucia™ ISG (interferon stimulated genes) reporter assay to determine if the compounds activate the IRF3 signaling pathway. The THP1-Lucia™ cells (InvivoGen) express the secreted luciferase (Lucia) reporter gene under the control of an IRF-inducible promotor. The reporter cell line was developed from human monocytic leukemia THP-1 cells.
(§1) The promotor was comprised of five IFN-stimulated response elements (ISRE) fused to an ISG54 minimal promotor which is unresponsive to NF-kB or AP-1 pathways. […] The IRF3-deficient THP1-Lucia™ ISG IRF3 −/− reporter cell line was generated by CRISPR technology from the parent THP1-Lucia™ ISG reporter cell line.
(§2) 5 THP1-Lucia™ ISG cells and IRF3-deficient THP1-Lucia™ ISG IRF3 −/− cells were differentiated with PMA (100 ng/ml) and stimulated with compounds at the indicated concentrations (5 to 20 μM), positive control, or not treated (background). Luciferase secretion was quantified using the QUANTI-Luc luciferase assay system (InvivoGen) 18 h after stimulation. Data are shown as fold increase luciferase activity over background in Table 7 and represent the IRF3-dependent ISG54 promotor activity by the THP1-Lucia™ ISG cells in response to compounds. […] The fold increase of compounds (10 μM, *20 μM, **5 μM) induced IRF3 dependent luciferase activity is indicated as follows: “−” indicates less than 2.4 fold increase; “+” indicates a 2.4-4.9 fold increase; “++” indicates a 5-9.9 fold increase; “+++” indicates a 10-19 fold increase; “++++” indicates a 20-39 fold increase; “+++++” indicates greater than or equal to 40 fold increase.

[2] = test system: THP1-Lucia ISG IRF3 −/− cells; assay: IRF3-deficient THP1-Lucia ISG IRF3 −/− reporter assay (counter-screen); assay type: cell-based; conditions: Homo sapiens, 18 h after stimulation, read-out: THP1 ISG IRF3 −/−: fold increase of luciferase activity over background; for fold induction at 10 µM: 10 μM compound; for fold induction at 5 µM: 5 μM compound (**)
Experimental: as §1, §2

[3] = test system: CXCL10 secretion by CT26 cells; assay: RIG-I dependent CXCL10 secretion by CT26 colon carcinoma cells (ELISA); assay type: cell-based, murine; conditions: 24 h
Experimental: (§3) The CT26 murine colon carcinoma cell line (ATCC) was used to evaluate the induction of CXCL10 secretion. CXCL10 is an important chemokine in tumor immune biology that recruits tumor-specific T cells to the tumor. To confirm that compound-mediated CXCL10 production was RIG-I specific, RIG-I deficient CT2-RIG-1−/− cells were generated by Kineta using CRISPR technology.
(§4) CT26 cells were seeded at a density of 1×10^4 cells per well on a 96-well tissue culture plate in 100 μL of cell culture and cells were incubated at 37° C. and 5% CO2 for 24 hr. Next, CT26 cells were treated with compounds at the indicated concentrations. CXCL10 was quantified by ELISA from supernatants taken 24 h after compound stimulation by use of the CXCL10 DuoSet ELISA kit (Cat # DY466, R&D, Minneapolis, Minn., USA) according to the manufacturer's instructions.
(§5) CXCL10 secretion by CT26 cells in response to compounds (in an amount of 5 to 20 μM) of the present disclosure is shown in Table 8. The compound-induced CXCL10 production was RIG-I dependent, since none of the compounds mediated CXCL10 secretion in RIG-I deficient CT26 RIG-1−/− cells. The compounds (10 μM, *20 μM, **5 μM) are indicated in the table as follows: “−” indicates less than 100 pg/mL; “+” indicates 100-199 pg/mL; “++” indicates 200-399 pg/mL; “+++” indicates 400-799 pg/mL; “++++” indicates 800 to 1599 pg/mL; “+++++” indicates greater than or equal to 1600 pg/ml.

[4] = test system: RIG-I deficient CT26 RIG-1−/− cells; assay: CXCL10 secretion in RIG-I deficient CT26 RIG-1−/− cells (ELISA); assay type: cell-based, murine; conditions: 24 h
Experimental: as §3, §4, §5

Row | SMILES | fold induction at 10 µM [1] | fold induction at 10 µM [2] | CXCL10 secretion by CT26 cells ([3]; 10 μM compound) | CXCL10 secretion by CT26 RIG-I −/− cells ([4]; 10 μM compound) | CXCL10 secretion by CT26 cells ([3]; 5 μM compound (**)) | CXCL10 secretion by CT26 RIG-I −/− cells ([4]; 5 μM compound (**)) | fold induction at 5 µM [1] | fold induction at 5 µM [2] | fold induction at 20 µM ([1]; 20 μM compound (*)) | CXCL10 secretion by CT26 cells ([3]; 20 μM compound (*)) | CXCL10 secretion by CT26 RIG-I −/− cells ([4]; 20 μM compound (*))
1 | O=C(Nc1nc2ccc(C(=O)Nc3c(Cl)cccc3Cl)cc2s1)c1ccc2ccccc2c1 [Example 13, N-(2,6-dichlorophenyl)-2-(naphthalene-2-amido)-1,3-benzothiazole-6-carboxaraide] | 20 to 39 | < 2.4 | +++++ (“+++++” indicates greater than or equal to 1600 pg/ml) | − (“−” indicates less than 100 pg/mL) | – | – | – | – | – | – | –
2 | O=C(Nc1ccccn1)c1ccc2nc(NC(=O)c3ccc4ccccc4c3)sc2c1 [Example 14, 2-(naphthalene-2-amido)-N-(pyridin-2-yl)-1,3-benzo-thiazole-6-carboxamide] | 20 to 39 | < 2.4 | ++++ (“++++” indicates 800 to 1599 pg/mL) | − (“−” indicates less than 100 pg/mL) | – | – | – | – | – | – | –
3 | O=C(Nc1nc2ccc(C(=O)Nc3c(Cl)cccc3Cl)cc2s1)c1ccc2ncccc2c1 [Example 15, N-{6-[(2,6-dichlorophenyl)carbamoyl]-1,3-benzothiazol-2-yl}quinoline-6-carboxamide] | 20 to 39 | < 2.4 | ++++ (“++++” indicates 800 to 1599 pg/mL) | − (“−” indicates less than 100 pg/mL) | – | – | – | – | – | – | –
4 | O=C(Nc1nc2ccc(S(=O)(=O)N3CCOCC3)cc2s1)c1cc2ccccc2cc1OCCN1CCOCC1 [Example 16, 3-[2-(morpholin-4-yl)ethoxy]-N-[6-(morpholine-4-sulfonyl)-1,3-benzothiazol-2-yl]naphthalene-2-carboxamide] | 20 to 39 | < 2.4 | ++++ (“++++” indicates 800 to 1599 pg/mL) | − (“−” indicates less than 100 pg/mL) | – | – | – | – | – | – | –
5 | O=C(Nc1nc2ccc(S(=O)(=O)N3CCOCC3)cc2s1)c1cc2ccccc2cc1OCCCCN1CCOCC1 [Example 17, 3-[4-(morpholin-4-yl)butoxy]-N-[6-(morpholine-4-sulfonyl)-1,3-benzothiazol-2-yl]naphthalene-2-carboxamide] | 10 to 19 | < 2.4 | +++ (“+++” indicates 400-799 pg/mL) | − (“−” indicates less than 100 pg/mL) | – | – | – | – | – | – | –
6 | O=C(Nc1nc2ccc(Cc3ccccc3)cc2s1)c1cc2ccccc2cc1OCCN1CCOCC1 [Example 18, N-(6-benzyl-1,3-benzothiazol-2-yl)-3-[2-(morpholin-4-yl)ethoxy]naphthalene-2-carboxamide] | 2.4 to 4.9 | < 2.4 | + (“+” indicates 100-199 pg/mL) | − (“−” indicates less than 100 pg/mL) | – | – | – | – | – | – | –
7 | O=C(Nc1nc2ccc([N+](=O)[O-])cc2s1)c1cc2ccccc2cc1OCCN1CCOCC1 [Example 20, 3-[2-(morpholin-4-yl)ethoxy]-N-(6-nitro-1,3-benzothiazol-2-yl)naphthalene-2-carboxamide] | 10 to 19 | < 2.4 | – | – | +** (“+” indicates 100-199 pg/mL) | −** (“−” indicates less than 100 pg/mL) | – | – | – | – | –
8 | O=C(Nc1nc2ccc(NC(=O)C3CCCCC3)cc2s1)c1cc2ccccc2cc1OCCN1CCOCC1 [Example 21, N-(6-cyclohexaneamido-1,3-benzothiazol-2-yl)-3-[2-(morpholin-4-yl)ethoxy]naphthalene-2-carboxamide] | 5 to 9.9 | < 2.4 | – | – | +** (“+” indicates 100-199 pg/mL) | −** (“−” indicates less than 100 pg/mL) | – | – | – | – | –
9 | O=C(Nc1nc2ccc(NC(=O)C3CCCCC3)cc2s1)c1cc2ccccc2cc1OCCCCN1CCOCC1 [Example 22, N-(6-cyclohexaneamido-1,3-benzothiazol-2-yl)-3-[4-(morpholin-4-yl)butoxy]naphthalene-2-carboxamide] | – | – | – | – | +** (“+” indicates 100-199 pg/mL) | −** (“−” indicates less than 100 pg/mL) | 2.4 to 4.9 | < 2.4 | – | – | –
10 | O=C(Nc1nc2ccc([N+](=O)[O-])cc2s1)c1cc2ccccc2cc1OCCCCN1CCOCC1 [Example 23, 3-[4-(morpholin-4-yl)butoxy]-N-(6-nitro-1,3-benzothiazol-2-yl)naphthalene-2-carboxamide] | – | – | – | – | ++++** (“++++” indicates 800 to 1599 pg/mL) | −** (“−” indicates less than 100 pg/mL) | 5 to 9.9 | < 2.4 | – | – | –
11 | N#Cc1ccc2nc(NC(=O)c3cc4ccccc4cc3OCCN3CCOCC3)sc2c1 [Example 24, N-(6-cyano-1,3-benzothiazol-2-yl)-3-[2-(morpholin-4-yl)ethoxy]naphthalene-2-carboxamide] | 5 to 9.9 | < 2.4 | − (“−” indicates less than 100 pg/mL) | − (“−” indicates less than 100 pg/mL) | – | – | – | – | – | – | –
12 | N#Cc1ccc2nc(NC(=O)c3cc4ccccc4cc3OCCCCN3CCOCC3)sc2c1 [Example 25, N-(6-cyano-1,3-benzothiazol-2-yl)-3-[4-(morpholin-4-yl)butoxy]naphthalene-2-carboxamide] | – | – | – | – | – | – | – | < 2.4 | 2.4 to 4.9 | +* (“+” indicates 100-199 pg/mL) | −* (“−” indicates less than 100 pg/mL)
13 | CS(=O)(=O)Nc1ccc2nc(NC(=O)c3cc4ccccc4cc3OCCCCN3CCOCC3)sc2c1 [Example 27, N-(6-methanesulfonamido-1,3-benzothiazol-2-yl)-3-[4-(morpholin-4-yl)butoxy]naphthalene-2-carboxamide] | 20 to 39 | < 2.4 | +++ (“+++” indicates 400-799 pg/mL) | − (“−” indicates less than 100 pg/mL) | – | – | – | – | – | – | –
14 | CS(=O)(=O)Nc1ccc2nc(NC(=O)c3cc4ccccc4cc3OCCN3CCOCC3)sc2c1 [Example 28, N-(6-methanesulfonamido-1,3-benzothiazol-2-yl)-3-[2-(morpholin-4-yl)ethoxy]naphthalene-2-carboxamide] | 2.4 to 4.9 | < 2.4 | + (“+” indicates 100-199 pg/mL) | − (“−” indicates less than 100 pg/mL) | – | – | – | – | – | – | –
15 | O=C(Nc1nc2ccc(S(=O)(=O)N3CCCC3)cc2s1)c1cc2ccccc2cc1OCCN1CCOCC1 [Example 29, 3-[2-(morpholin-4-yl)ethoxy]-N-[6-(pyrrolidine-1-sulfonyl)-1,3-benzothiazol-2-yl]naphthalene-2-carboxamide] | ≥ 40 | < 2.4 | ++++ (“++++” indicates 800 to 1599 pg/mL) | − (“−” indicates less than 100 pg/mL) | – | – | – | – | – | – | –
